# From patent US10226452B2, “Benzoxazolone derivatives as acid ceramidase inhibitors, and their use as medicaments” (FONDAZIONE ISTITUTO ITALIANO DI TECNOLOGIA, priority 2014, dated 2019)
# How the values were obtained:
# PLC = assay: Cerep enzyme inhibition screen: PLC; format: biochemical; conditions: mean of two determinations
# From the text: Compound of Example 25 falling in both Formula (I) and (Ia) was selected to be tested for off-target effects on a set of enzymes that include proteases (aspartic, cysteine, and serine), cyclooxygenases as well as lipoxygenases and group IV phospholipase (sPLA2) (Table 3).
# AC [1] = molecular target: AC (Mus musculus (Mouse), UniProt Q9WV54); assay: AC activity in RAW264.7 murine cell line; format: cell-based; conditions: Raw264.7 cells; 0.1-20 μM; 3 hours
# Description: (§1) Specifically it is reported the concentration response of compound of Example 25 or vehicle (0.1% DMSO in DMEM) on AC activity and ceramide levels in RAW264.7 murine cell line. (A) Intact cells were treated with compound of Example 25 (0.1-20 μM) or vehicle and AC activity was measured 3 hours later in cell lysates. (B-E) Intact cells were exposed to compound of Example 25 (0.1-20 μM) for 3 hours and sphingosine/sphinganine (B), dihydroceramides (C), medium chain ceramides (D), long chain ceramides (E) were quantified. Results are expressed as mean±s.e.m. (n=3). *p<0.05, **p<0.01, ***p<0.001 vs vehicle, two-way ANOVA followed by Dunnet.
# hAC protein preparation (10 μg) was preincubated with inhibitors (final DMSO concentration 1%) in assay buffer (100 mM sodium phosphate, 0.1% Nonidet P-40, 150 mM NaCl, 3 mM DTT, 100 mM sodium citrate, pH 4.5) for 30 min at 37° C. Reactions were started by the addition of 50 μM N-lauroyl ceramide (Nu-Chek Prep, Elysian, Minn.) and carried on for 30 min at 37° C. […] The organic phases were collected, dried under nitrogen and analyzed by UPLC/MS (Acquity, Waters). […]
# The [M−H]^− ion was monitored in the selected-ion monitoring mode (m/z values: lauric acid 199, 11-lauroleic acid 197.35). […] Inhibition of AC activity was calculated as reduction of lauric acid in the samples compared to vehicle controls. […]
# Raw264.7 cells = assay: sphingosine and ceramide levels in RAW264.7 cells; format: cell-based, mouse; conditions: 0.1-20 μM, 3 hours
# Description: as §1
# Lipids were extracted from mouse tissue lysate with a chloroform/MeOH mixture (2:1 v/v, 3 mL) containing internal standards. The organic phase was collected, dried under nitrogen, and dissolved in chloroform/MeOH (1:3 v/v) for LC-MS analyses. Ceramides, sphingosine and sphinganine were analyzed by LC-MS/MS, using a Waters Acquity UPLC coupled with a Waters Xevo TQMS and interfaced with ESI. […]
# Tissue-derived sphingosine and sphinganine were identified by comparison of their LC retention times and MS^2 fragmentation patterns with those of authentic standards (Avanti Polar Lipids). Extracted ion chromatograms were used to quantify sphingosine ([…], m/z 300.5>282.5) and sphinganine standard (C18:0, m/z 303>285). […]
# AC [2] = molecular target: AC (Homo sapiens (Human), UniProt Q13510); assay: AC activity in SW403 human colon adenocarcinoma cells; format: cell-based
# Description: as §1, with “(A)” for “Specifically it is reported the concentration response of compound of Example 25 or vehicle (0.1% DMSO in DMEM) on AC activity and ceramide levels in RAW264.7 murine cell line. (A)”
# (A) Intact cells were treated with compound of Example 25 (20 μM) or vehicle and AC activity was measured 1 to 48 hours later in cell lysates. (B-E) Intact cells were exposed to compound of Example 25 (20 μM) and sphingosine (B), C16:0 dihydroceramide (C), C16:0 ceramide (D) were quantified. Results are expressed as mean±s.e.m. (n=3). *p<0.05, **p<0.01, ***p<0.001 vs vehicle, two-way ANOVA followed by Dunnet.
# hAC protein preparation (10 μg) was preincubated with inhibitors (final DMSO concentration 1%) in assay buffer (100 mM sodium phosphate, 0.1% Nonidet P-40, 150 mM NaCl, 3 mM DTT, 100 mM sodium citrate, pH 4.5) for 30 min at 37° C. Reactions were started by the addition of 50 μM N-lauroyl ceramide (Nu-Chek Prep, Elysian, Minn.) and carried on for 30 min at 37° C. Reactions were stopped by addition of a mixture of chloroform/methanol (2:1, vol/vol) containing 1 nmol 11-lauroleic acid (NuChek Prep). The organic phases were collected, dried under nitrogen and analyzed by UPLC/MS (Acquity, Waters). In the negative-ion mode monitoring the reaction product (lauric acid, m/z=199) using 11-lauroleic acid as internal standard. […]
# The [M−H]^− ion was monitored in the selected-ion monitoring mode (m/z values: lauric acid 199, 11-lauroleic acid 197.35). […] Inhibition of AC activity was calculated as reduction of lauric acid in the samples compared to vehicle controls. IC50 values were calculated by non-linear regression analysis of log [concentration]/inhibition curves using GraphPad Prism 5 (GraphPad Software Inc., CA—USA) applying a standard slope curve fitting.
# [3] = 20 μM, AC activity and sphingolipid levels
# Sequence of AC (Homo sapiens (Human), UniProt Q13510) (Q13510 22-142): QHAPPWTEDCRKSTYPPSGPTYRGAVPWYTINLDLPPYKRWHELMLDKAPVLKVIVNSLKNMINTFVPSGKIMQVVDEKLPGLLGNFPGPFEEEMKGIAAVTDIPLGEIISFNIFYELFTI
# Sequence of AC (Homo sapiens (Human), UniProt Q13510) (Q13510 143-395): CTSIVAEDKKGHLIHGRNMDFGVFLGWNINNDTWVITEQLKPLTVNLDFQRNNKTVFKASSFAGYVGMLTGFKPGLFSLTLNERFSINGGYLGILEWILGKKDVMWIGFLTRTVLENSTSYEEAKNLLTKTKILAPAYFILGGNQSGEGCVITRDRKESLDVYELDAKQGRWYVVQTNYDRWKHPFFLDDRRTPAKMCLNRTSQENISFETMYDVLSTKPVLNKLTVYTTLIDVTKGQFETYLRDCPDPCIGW
# Sequence of AC (Mus musculus (Mouse), UniProt Q9WV54) (Q9WV54 19-141): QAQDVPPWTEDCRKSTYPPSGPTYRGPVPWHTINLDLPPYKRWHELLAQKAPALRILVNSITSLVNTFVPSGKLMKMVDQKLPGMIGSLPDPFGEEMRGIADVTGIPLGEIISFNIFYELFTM
# Sequence of AC (Mus musculus (Mouse), UniProt Q9WV54) (Q9WV54 142-394): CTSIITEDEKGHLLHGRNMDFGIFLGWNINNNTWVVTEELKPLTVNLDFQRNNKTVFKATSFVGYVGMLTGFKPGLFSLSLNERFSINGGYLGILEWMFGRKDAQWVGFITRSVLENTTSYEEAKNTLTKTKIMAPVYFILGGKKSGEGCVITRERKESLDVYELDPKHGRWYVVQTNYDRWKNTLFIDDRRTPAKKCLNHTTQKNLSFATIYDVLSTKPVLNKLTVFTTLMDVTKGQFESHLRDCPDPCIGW
compound,measurement,setting,value
"O=C(NCCCCc1ccccc1)n1c(=O)oc2cc(-c3ccc(F)cc3)ccc21 [Example 25, 6-(4-Fluorophenyl)-2-oxo-N-(4-phenylbutyl)-1,3-benzoxazole-3-carboxamide]","Inhibitory activity (% Inh. at 10 μM), mean",PLC,−19.7%
same,AC activity,AC [1],concentration dependent reduction in AC activity
same,di-hydro ceramides and ceramide species levels,Raw264.7 cells,intracellular accumulation of various di-hydro ceramides and ceramide species
same,sphingosine levels,Raw264.7 cells,parallel decrease in sphingosine levels
same,duration of effects (timecourse),AC [2]; [3],≥ 6 h
same,onset of significant effects (timecourse),AC [2]; [3],≤ 1 h
same,AC activity,"AC [2]; 0.1-20 μM, 3 hours",concentration dependent reduction in AC activity
